Laboratory results taken from patent US6558900B2, “Regulation of apoptosis and in vitro model for studies thereof” (Emory University, priority 1996, dated 2003).
Entries after “also recorded” stand apart in the source; their conditions may differ.

tested on: CPP32; experiment: Apaf-2 activity: recombining with phosphocellulose flow through fraction (Apaf-1) and 35S-labeled CPP32; type: biochemical, human; conditions: one unit = cleavage of 1% of the input substrate in 60 min
Method: FIG. 3 illustrates fractionation and reconstitution of dATP-dependent activation of CPP32 by phosphocellulose chromatography. HeLa cell S-100 was subjected to phosphocellulose chromatography and the column flow through and bound material were collected as described in the Examples. Aliquots (10 μl) of HeLa S-100 (50 μg) (lanes 1 and 2), phosphocellulose flow through fraction (PC-FT) (lanes 3 and 4), phosphocellulose bound fraction (PC-B) (lanes 5 and 6), and the mixture of phosphocellulose flow through and bound material (lanes 7 and 8) were incubated with aliquots of 3 μl in vitro translated, ^35S-labeled CPP32 at 30° C. for 1 hr in the absence (lanes 1,3,5,7) or presence (lanes 2,4,6,8) of 1 mM dATP. The samples were subjected to SDS-PAGE, transferred to a nitrocellulose filter, and the filter was exposed to film for 16 hours at room temperature.
The Apaf-2 activity that bound to the phosphocellulose column was purified through the Mono S column as described in Example 7. […] In FIG. 4B, aliquots (30 μl) of the Mono-S fractions were subjected to 15% SDS-PAGE and the proteins were visualized by silver staining.
Aliquots of 0.2 μg of Apaf-2 purified through the Mono S column (lanes 1, 2), cytochrome c from bovine heart (lanes 3, 4), and rat liver (lanes 5, 6) were incubated with aliquots of 10 μl phosphocellulose flowthrough fraction and 3 μl in vitro translated, 35S-labeled CPP32 at 30° C. for 1 hr in a final volume of 20 μl buffer A in the absence (lanes 1,3,5) or presence of (lanes 2, 4, 6) 1 mM dATP. Samples were subjected to SDS-PAGE and transferred to a nitrocellulose filter which was then exposed to a film for 16 hr at room temperature.
To isolate the protein(s) required for the activation of CPP32, HeLa S-100 was loaded onto a phosphocellulose column, and the flow-through and bound fractions were collected. […] When the flowthrough and bound fractions were mixed, CPP32-activating activity was restored (lanes 7-8). […] The factor(s) that flow through the phosphocellulose column are designated apoptotic protease activating factor-1 (Apaf-1) and the factor that bound to the column is designated apoptotic protease activating factor-2 (Apaf-2). It is understood that “Apaf-1” may represent more than one protein or it may represent a combination of protein(s) and other factors.
Apaf-2 activity was assayed by recombining with Apaf-1 after purification by the following steps. First, the Apaf-2 fraction was subjected to 50% ammonium sulfate precipitation. All of the activity remained in the supernatant while most of the protein precipitated (Table I). The supernatant was loaded onto a phenyl-sepharose (hydrophobic interaction) column and the activity was eluted with 1 M ammonium sulfate. The eluate was passed through a gel filtration column; active fractions were subjected to sequential Mono Q (anion exchange) and Mono S (cation exchange) chromatography. The Apaf-2 activity flowed through the Mono Q column, and the flow through was directly loaded onto the Mono S column. Bound Apaf-2 activity was then eluted with a 100-300 mM NaCl linear salt gradient. The fractions from the Mono S column were collected and assayed. […] The active fractions were analyzed by SDS-PAGE (FIG. 4B). A protein of apparent molecular mass of 15 kDa was co-eluted with the activity. No other proteins were detected by silver staining in the active Apaf-2 fractions.
CPP32 was translated and purified as described above. […]

Question: What does the source list for “Mono Q/Mono-S: Apaf-2 purification step 6: Apaf-2 purified through the Mono S column”?
Answer: Specific Activity: 263150 units/mg; Total Activity: 20000 unit

tested on: CPP32; experiment: Assay for dATP-dependent activation of CPP32 protease (cleavage of in vitro translated 35S-labeled CPP32 in HeLa S-100); type: biochemical, hamster; conditions: 1 mM nucleotide, 30° C., 1 hr
Method: The samples were subjected to SDS-PAGE and transferred to a nitrocellulose filter. The filter was exposed to film for 16 hours at room temperature. In FIG. 2B, a 50 μl aliquot of HeLa S-100 (250 μg) was incubated with each aliquot of 6 μl hamster liver nuclei at 37° C. for 2 hr in the presence of 1 mM indicated nucleotide. The DNA was isolated, analyzed by 2% agarose gel electrophoresis and visualized by ethidium bromide staining.
To test the nucleotide specificity for activation of CPP32 and DNA fragmentation, HeLa cell S-100 was incubated with in vitro translated, ^35S-labeled CPP32 in the presence of 1 mM of various nucleotides (FIG. 2A).
A PCR fragment encoding amino acids 29-277 of hamster CPP32 [Wang et al. (1996) supra] was cloned into NdeI and BamHI sites of pET 15b vector (Novagen, Madison, Wis.). The resulting fusion protein of six histidines with hamster CPP32 (amino acids 29-277) was translated in a TNT T7 transcription/translation kit (Promega, Madison, Wis.) in the presence of ^35S-methionine according to the manufacturer's instructions. The translated protein was passed through a 1 ml nickel affirmity column (Qiagen, Chatsworth, Calif.) equilibrated with buffer A. After washing the column with 10 ml of buffer A, the translated CPP32 was eluted with buffer A containing 250 mM imidazole. Human SREBP-2 was translated in a TNT SP6 transcription/translation kit as described [Wang et al. (1995) [Hua et al. (1993) Proc. Natl. Acad. Sci. USA 90, 11603-11607]. Full length human PARP cDNA [Chemey et al. (1987) Proc. Natl. Acad. Sci. USA 84, 8370-8374] was cloned into SmaI and EcoRI sites of pBK-CMV vector (Stratagene, La Jolla, Calif.) and translated in a TNT T7 transcription/translation kit [Promega, Madison, Wis.]. The translated SREBP-2 and PARP (200 μl each) were purified by passing each translation mixture through a 10-ml Sephadex G-25 gel-filtration column equilibrated with buffer A. The translated proteins contained within the exclusion volume of the column were collected.
CPP32 was translated and purified as described above. Aliquot of 3 μl of the in vitro translated CPP32 was incubated with the indicated protein fraction, nucleotides, and 1 mM additional MgCl2 at 30° C. for 1 hour in a final volume of 20 μl of buffer A. At the end of the incubation, 7 μl of 4×SDS sample buffer was added to each reaction. After boiling for 3 min, each sample was subjected to a 15% SDS-polyacrylamide gel electrophoresis (SDS-PAGE). The gel was transferred to a nitrocellulose filter which was subsequently exposed to a Kodak X-OMAT AR X-ray film (Eastman Kodak, Rochester, N.Y.) for 16 hr at room temperature.

Question: How did the “cleavage of 35S-labeled CPP32 (nucleotide specificity)” value (“cleavage of 35S-labeled CPP32” for short) turn out when `Nc1ncnc2c1ncn2[C@@H]1O[C@H](CO)[C@@H](O)[C@H]1O` [adenosine] was run?
Answer: did not replace dATP

Question: How did the “cleavage of 35S-labeled CPP32” value turn out when `Nc1ncnc2c1ncn2[C@@H]1O[C@H](COP(=O)(O)OP(=O)(O)O)[C@@H](O)[C@H]1O` [ADP] was run?
Answer: did not replace dATP

Question: How did the “cleavage of 35S-labeled CPP32” value turn out when `Nc1nc2c(ncn2[C@@H]2O[C@H](COP(=O)(O)OP(=O)(O)OP(=O)(O)O)[C@@H](O)[C@H]2O)c(=O)[nH]1` [GTP] was run?
Answer: did not replace dATP

Question: With `Nc1ncnc2c1ncn2[C@H]1C[C@H](O)[C@@H](COP(=O)(O)OP(=O)(O)O)O1` [dADP] as the molecule, how does the “cleavage of 35S-labeled CPP32” value read?
Answer: Cleavage occurred; also recorded: can substitute for dATP

Question: `Nc1ncnc2c1ncn2[C@@H]1O[C@H](COP(=O)(O)O)[C@@H](O)[C@H]1O` [AMP] was tested. Which “cleavage of 35S-labeled CPP32” value did it give?
Answer: did not replace dATP

Question: Which “cleavage of 35S-labeled CPP32” value does the source give for `Nc1nc2c(ncn2[C@H]2C[C@H](O)[C@@H](COP(=O)(O)OP(=O)(O)OP(=O)(O)O)O2)c(=O)[nH]1` [dGTP] here?
Answer: did not replace dATP

Question: For `Nc1ncnc2c1ncn2[C@H]1C[C@H](O)[C@@H](COP(=O)(O)O)O1` [dAMP], which “cleavage of 35S-labeled CPP32” value is on record?
Answer: did not replace dATP

Question: For `Nc1ccn([C@H]2C[C@H](O)[C@@H](COP(=O)(O)OP(=O)(O)OP(=O)(O)O)O2)c(=O)n1` [dCTP], which “cleavage of 35S-labeled CPP32” value is on record?
Answer: did not replace dATP

Question: Which “cleavage of 35S-labeled CPP32” value does the source give for `Nc1ccn([C@@H]2O[C@H](COP(=O)(O)OP(=O)(O)OP(=O)(O)O)[C@@H](O)[C@H]2O)c(=O)n1` [CTP] here?
Answer: did not replace dATP

Question: How did the “cleavage of 35S-labeled CPP32” value turn out when `O=c1ccn([C@@H]2O[C@H](COP(=O)(O)OP(=O)(O)OP(=O)(O)O)[C@@H](O)[C@H]2O)c(=O)[nH]1` [UTP] was run?
Answer: did not replace dATP

Question: Which “cleavage of 35S-labeled CPP32” value does the source give for `Cc1cn([C@H]2C[C@H](O)[C@@H](COP(=O)(O)OP(=O)(O)OP(=O)(O)O)O2)c(=O)[nH]c1=O` [dTTP] here?
Answer: did not replace dATP

Question: For `Nc1ncnc2c1ncn2[C@H]1C[C@H](O)[C@@H](CO)O1` [deoxyadenosine], which “cleavage of 35S-labeled CPP32” value is on record?
Answer: did not replace dATP
